Columns and labels:
[1] = system: c-myc in Human AML MV4-11 cells; experiment: Inhibition of cMYC expression (mRNA, real-time PCR) in MV4-11 cells; type: cell-based; settings: 3 h treatment, cMYC mRNA by real-time PCR
Method: MV4-11 cells (CRL-9591) were plated at a density of 2.5×10^4 cells per well in 96 well U-bottom plates and treated with increasing concentrations of test compound or DMSO (0.1%) in IMDM media containing 10% FBS and penicillin/streptomycin, and incubated for 3 h at 37′C. Triplicate wells were used for each concentration. Cells were pelleted by centrifugation and harvested using the mRNA Catcher PLUS kit according to manufacturer's instructions. The eluted mRNA isolated was then used in a one-step quantitative real-time PCR reaction, using components of the RNA UltraSense™ One-Step Kit (Life Technologies) together with Applied Biosystems TaqMan® primer-probes for cMYC and Cyclophilin. Real-time PCR plates were run on a ViiA™7 real time PCR machine (Applied Biosystems), data was analyzed, normalizing the Ct values for cMYC to an internal control, prior to determining the fold expression of each sample, relative to the control.

hIL-6 mRNA = experiment: Inhibition of hIL-6 mRNA transcription in LPS-stimulated U937 macrophages; type: cell-based, Human; settings: 1 h pretreatment, LPS 3 h; for IC50: Homo sapiens, U-937, PMA-differentiated U937 cells, read-out: IL-6 activity; for IL-6 activity: PMA-differentiated U937 cells
Method: Human leukemic monocyte lymphoma U937 cells (CRL-1593.2) were plated at a density of 3.2×10^4 cells per well in a 96-well plate in 100 μL RPMI-1640 containing 10% FBS and penicillin/streptomycin, and differentiated into macrophages for 3 days in 60 ng/mL PMA ([…]) at 37° C. in 5% CO2 prior to the addition of compound. The cells were pretreated for 1 h with increasing concentrations of test compound in 0.1% DMSO prior to stimulation with 1 ug/mL lipopolysaccharide from Escherichia coli. Triplicate wells were used for each concentration. The cells were incubated at 37° C., 5% CO2 for 3 h before the cells were harvested. At time of harvest, media was removed and cells were rinsed in 200 μL PBS. Cells were harvested using the mRNA Catcher PLUS kit according to manufacturer's instructions. The eluted mRNA was then used in a one-step quantitative real-time PCR reaction using components of the RNA UltraSense™ One-Step Kit (Life Technologies) together with Applied Biosystems TaqMan® primer-probes for hIL-6 and Cyclophilin. Real-time PCR plates were run on a ViiA™7 real time PCR machine (Applied Biosystems), data was analyzed, normalizing the Ct values for hlL-6 to an internal control, prior to determining the fold expression of each sample, relative to the control.

Human AML MV-4-11 cells = experiment: Inhibition of cell proliferation in MV4-11 cells (CellTiter Aqueous One); type: cell-based; settings: for IC50: MV4-11, 72 h; for Cell Proliferation activity: 72 h
Method: MV4-11 cells (CRL-9591) were plated at a density of 5×10^4 cells per well in 96 well flat bottom plates and treated with increasing concentrations of test compound or DMSO (0.1%) in IMDM media containing 10% FBS and penicillin/streptomycin. Triplicate wells were used for each concentration and a well containing only media was used as a control. Plates were incubated at 37° C., 5% CO2 for 72 h before adding 20 µL of the CellTiter Aqueous One Solution (Promega) to each well and incubated at 37° C., 5% CO2 for an additional 3-4 h. The absorbance was read at 490 nm in a spectrophotometer and the percentage of cell titer relative to DMSO-treated cells was calculated after correcting for background by subtracting the blank well's signal. IC50 values were calculated using the GraphPad Prism software.

[2] = molecular target: Brd4 bromodomain 1 (BRD4(1)) (Homo sapiens, UniProt O60885); experiment: Inhibition of tetra-acetylated histone H4 binding to Brd4 bromodomain 1, measured by FRET (HTRF); parameters: made in house; host or cells: E. coli BL21(DE3); settings: 2 h at room temperature
Method: Proteins were cloned and overexpressed with a N-terminal 6×His tag, then purified by nickel affinity followed by size exclusion chromatography. Briefly, E. coli BL21(DE3) cells were transformed with a recombinant expression vector encoding N-terminally Nickel affinity tagged bromodomains from Brd2, Brd3, Brd4. Cell cultures were incubated at 37° C. with shaking to the appropriate density and induced overnight with IPTG. The supernatant of lysed cells was loaded onto Ni-IDA column for purification. Eluted protein was pooled, concentrated and further purified by size exclusion chromatography. Fractions representing monomeric protein were pooled, concentrated, aliquoted, and frozen at −80° C. for use in subsequent experiments.
Binding of tetra-acetylated histone H4 and BET bromodomains was confirmed by a Homogenous Time Resolved Fluorescence Resonance Energy Transfer (HTRF®) method. N-terminally His-tagged bromodomains (200 nM) and biotinylated tetra-acetylated histone H4 peptide (25-50 nM, Millipore) were incubated in the presence of Europium Cryptate-labeled streptavidin (Cisbio Cat. #610SAKLB) and XL665-labeled monoclonal anti-His antibody (Cisbio Cat. #61HISXLB) in a white 96 well microtiter plate (Greiner). For inhibition assays, serially diluted test compound was added to these reactions in a 0.2% final concentration of DMSO. Duplicate wells were used for each concentration tested. Final buffer concentrations were 30 mM HEPES pH 7.4, 30 mM NaCl, 0.3 mM CHAPS, 20 mM phosphate pH 7.0, 320 mM KF, 0.08% BSA. After a 2 h incubation at room temperature, fluorescence was measured at 665 and 620 nm with a SynergyH4 plate reader (Biotek). The binding inhibitory activity was shown by a decrease in 665 nm relative to 620 nm fluorescence. IC50 values were determined from a dose response curve.

IC50 [1] | IC50 (hIL-6 mRNA) | IC50 (Human AML MV-4-11 cells) | IC50 [2] | SMILES | Cell Proliferation activity (Human AML MV-4-11 cells) | IL-6 activity (hIL-6 mRNA)
300 to 3000 nM | 300 to 3000 nM | ≤ 300 nM | 300 to 3000 nM | Cc1nc2c(-c3cc4ccccc4s3)cc(-c3c(C)noc3C)cc2[nH]1 [Example Compound 145, 4-(4-(benzo[b]thiophen-2-yl)-2-methyl-1H-benzo[d]imidazol-6-yl)-3,5-dimethyl isoxazole] |  | 
300 to 3000 nM | 300 to 3000 nM | 300 to 3000 nM | ≤ 300 nM | Cc1nc2c(-c3cccc4ccncc34)cc(-c3c(C)noc3C)cc2[nH]1 [Example Compound 110, 4-(4-(iso-quinolin-8-yl)-2-methyl-1H-benzo[d]imidazol-6-yl)-3,5-dimethyl isoxazole] |  | 
 | 300 to 3000 nM | 300 to 3000 nM | ≤ 300 nM | Cc1nc2c(/C=C/c3ccccc3)cc(-c3c(C)noc3C)cc2[nH]1 [Example Compound 158, (E)-3,5-dimethyl-4-(2-methyl-4-styryl-1H-benzo[d]imidazol-6-yl)isoxazole] |  | 
 | 300 to 3000 nM | 3000 to 30000 nM | 300 to 3000 nM | Cc1nc2c(NC(=O)c3ccccc3)cc(-c3c(C)noc3C)cc2[nH]1 [Example Compound 165, N-(6-(3,5-dimethyl-isoxazol-4-yl)-2-methyl-1H-benzo[d]imidazol-4-yl)benzamide] |  | 
 | ≤ 300 nM | 300 to 3000 nM | ≤ 300 nM | Cc1nc2c(-c3cccc(S(C)(=O)=O)c3)cc(-c3c(C)noc3C)cc2[nH]1 [Example Compound 154, 3,5-dimethyl-4-(2-methyl-4-(3-(methyl-sulfonyl)phenyl)-1H-benzo[d]imidazol-6-yl)isoxazole] |  | 
 |  |  | ≤ 300 nM | Cc1nc2c(Oc3cc(C(=O)O)ccc3C)cc(-c3c(C)noc3C)cc2[nH]1 [Example Compound 175, 3-((6-(3,5-dimethylisoxazol-4-yl)-2-methyl-1H-benzo[d]imidazol-4-yl)oxy)-4-methylbenzoic acid] | Not active | Not active

The next lines start with the molecule.

SMILES | IC50 [1] | IC50 (hIL-6 mRNA) | IC50 (Human AML MV-4-11 cells) | IC50 [2] | Cell Proliferation activity (Human AML MV-4-11 cells) | IL-6 activity (hIL-6 mRNA)
Cc1nc2c(-c3c(C)nc(N)nc3C)cc(-c3c(C)noc3C)cc2[nH]1 [Example Compound 99, 5-(6-(3,5-dimethyl-isoxazol-4-yl)-2-methyl-1H-benzo[d]imidazol-4-yl)-4,6-dimethyl pyrimidin-2-amine] | ≤ 300 nM | ≤ 300 nM | ≤ 300 nM | ≤ 300 nM |  | 
Cc1nc2c(-c3csnc3C)cc(-c3csnc3C)cc2[nH]1 [Example Compound 139, 4,4′-(2-methyl-1H-benzo[d]imidazole-4,6-diyl)bis(3-methylisothiazole)] | 3000 to 30000 nM | 300 to 3000 nM |  | 300 to 3000 nM | Not active | 
COc1cccc(Nc2cc(-c3c(C)noc3C)cc3[nH]cnc23)c1 [Example Compound 33, 6-(3,5-dimethyl-isoxazol-4-yl)-N-(3-methoxy-phenyl)-1H-benzo[d] imidazol-4-amine] | 300 to 3000 nM | 300 to 3000 nM | 300 to 3000 nM | ≤ 300 nM |  | 
Cc1noc(C)c1-c1cc(-c2cncnc2)c2nc[nH]c2c1 [Example Compound 22, 3,5-dimethyl-4-(4-(pyrimidin-5-yl)-1H-benzo[d]imidazol-6-yi)isoxazole] |  | 300 to 3000 nM |  | 300 to 3000 nM | Not active | 
Cc1ccc(C#N)cc1-c1cc(-c2c(C)noc2C)cc2[nH]c(NCc3cccnc3)nc12 [Example Compound 211, 3-(6-(3,5-dimethyl-isoxazol-4-yl)-2-((pyridin-3-ylmethyl)amino)-1H-benzo[d]imidazol-4-yl)-4-methyl-benzonitrile] |  | 300 to 3000 nM |  | ≤ 300 nM |  | 
Cc1noc(C)c1-c1cc(-c2c(C)nn(C)c2C)c2nc(NCc3ccccc3)[nH]c2c1 [Example Compound 212, N-benzyl-6-(3,5-dimethyl-isoxazol-4-yl)-4-(1,3,5-trimethyl-1H-pyrazol-4-yl)-1H-benzo[d] imidazol-2-amine] |  | ≤ 300 nM |  | ≤ 300 nM |  | 
Cc1noc(C)c1-c1cc(-c2cccc(C(N)=O)c2C)c2nc(N3CCOCC3)[nH]c2c1 [Example Compound 208, 3-(6-(3,5-dimethyl-isoxazol-4-yl)-2-morpholino-1H-benzo[d]imidazol-4-yl)-2-methyl benzamide] |  | ≤ 300 nM |  | ≤ 300 nM |  | 
Cc1noc(C)c1-c1cc(-c2c(C)nn(C)c2C)c2nc(N3CCCC3)[nH]c2c1 [Example Compound 213, 3,5-dimethyl-4-(2-(pyrrolidin-1-yl)-4-(1,3,5-trimethyl-1H-pyrazol-4-yl)-1H-benzo[d]imidazol-6-yl)isoxazole] |  | ≤ 300 nM |  | ≤ 300 nM |  | 
Cc1noc(C)c1-c1cc(-c2c(C)noc2C)c2nccn2c1 [Example Compound 8, 4,4′-(imidazo [1,2-a]pyridine-6,8-diyl) bis(3,5-dimethylisoxazole)] |  |  |  | 300 to 3000 nM | Not active | Not active
Cc1nc2c(N3C(=O)CCC3C)cc(-c3c(C)noc3C)cc2[nH]1 (stereo not drawn) [Example Compound 121, 1-(6-(3,5-dimethylisoxazol-4-yl)-2-methyl-1H-benzo[d]imidazol-4-yl)-5-methylpyrrolidin-2-one] |  | 300 to 3000 nM |  | 300 to 3000 nM | Not active | 
COc1nccc(C)c1-c1cc(-c2c(C)noc2C)cc2[nH]c(C)nc12 [Example Compound 114, 4-(4-(2-methoxy-4-methyl-pyridin-3-yl)-2-methyl-1H-benzo[d]imidazol-6-yl)-3,5-dimethyl isoxazole] |  | ≤ 300 nM |  | 300 to 3000 nM |  | 
Cc1ccc(C#N)cc1-c1cc(-c2c(C)noc2C)cc2[nH]c(N3CCCC3)nc12 [Example Compound 215, 3-(6-(3,5-dimethylisoxazol-4-yl)-2-(pyrrolidin-1-yl)-1H-benzo[d]imidazol-4-yl)-4-methylbenzonitrile] | ≤ 300 nM | 300 to 3000 nM |  | ≤ 300 nM |  | 
Cc1noc(C)c1-c1cc(-c2cccc(C#N)c2C)c2nc(NC3CCN(C)CC3)[nH]c2c1 [Example Compound 216, 3-(6-(3,5-dimethyl-isoxazol-4-yl)-2-((1-methyl-piperidin-4-yl)amino)-1H-benzo[d]imidazol-4-yl)-2-methyl benzonitrile] | 300 to 3000 nM | ≤ 300 nM |  | ≤ 300 nM |  | 
Cc1noc(C)c1-c1cc(Nc2ncccn2)c2nc[nH]c2c1 [Example Compound 43, 6-(3,5-dimethyl-isoxazol-4-yl)-N-(pyrimidin-2-yl)-1H-benzo[d] imidazol-4-amine] |  | 300 to 3000 nM | 3000 to 30000 nM | ≤ 300 nM |  | 
